Measurements from patent EP4741383A1, “COMPOUND AND USE THEREOF AS ANTI-CANCER DRUG” (Tyligand Bioscience (Shanghai) Limited, priority 2023, dated 2025).

biological target: T1, CYP2C19 (Homo sapiens, UniProt P33261); experiment: CYP450 inhibition in human liver microsomes, CYP2C19; type: in vitro ADME; conditions: pH 7.4, read-out: % CYP inhibition @ 10 µM 2C19
T1 construct: tissue Corning or Xenotech; host or cells: human liver microsomes
Source text: According to standard methods in the field for the study of cytochrome P450 enzyme systems, such as the method described in Kerns, Edward H. and Di Li et al., Drug-like Properties: Concepts, Structure Design and Methods: from ADME to Toxicity Optimization (2008), San Diego, Academic Press, and Lin, Tong et al., In Vitro Assessment of Cytochrome P450 Inhibition: Strategies for Increasing LC/MS-Based Assay Throughput Using a One-Point IC50 Method and Multiplexing High-Performance Liquid Chromatography (J. Pharm. Sci. 2007, 96 (9), 2485). The inhibitory effect of the disclosed compounds on the cytochrome P450 enzyme system was similarly examined below.
Human liver microsomes were purchased from Corning or Xenotech. The test compounds were evaluated by detecting the metabolism of substrates for different Cyp450 isoforms by human liver microsomes.
0.1 M potassium phosphate buffer (K-buffer, pH 7.4) was pre-warmed.
100 mM K-buffer was prepared by mixing 9.5 mL of stock solution A (1 M potassium dihydrogen phosphate, prepared by dissolving 136.5 g of potassium dihydrogen phosphate in 1 L of Milli-Q water) with 40.5 mL of stock solution B (1 M potassium hydrogen phosphate, prepared by dissolving 174.2 g of potassium hydrogen phosphate in 1 L of Milli-Q water). The total volume was adjusted to 500 mL with Milli-Q water, and the buffer was titrated to pH 7.4 using KOH or H3PO4.
Test compound solution and specific inhibitor solution (400× dilution) were prepared in a 96-well plate. For the test compound, 8 µL of 10 mM test compound was transferred into 12 µL of ACN. For specific inhibitors of CYP1A2, CYP2C9, and CYP2D6: 12 µL of 1 mM α-naphthoflavone, 10 µL of 40 mM sulfaphenazole, 10 µL of 10 mM quinidine, and 8 µL of DMSO were mixed. For specific inhibitors of CYP3A4, CYP2B6, CYP2C8, and CYP2C19: 8 µL of DMSO stock solution was added to 12 µL of ACN.
A 4× diluted NADPH solution was prepared by dissolving 66.7 mg of NADPH in 10 mL of 0.1 M K-buffer (pH 7.4). […]

T1 sequence (P33261 whole entry): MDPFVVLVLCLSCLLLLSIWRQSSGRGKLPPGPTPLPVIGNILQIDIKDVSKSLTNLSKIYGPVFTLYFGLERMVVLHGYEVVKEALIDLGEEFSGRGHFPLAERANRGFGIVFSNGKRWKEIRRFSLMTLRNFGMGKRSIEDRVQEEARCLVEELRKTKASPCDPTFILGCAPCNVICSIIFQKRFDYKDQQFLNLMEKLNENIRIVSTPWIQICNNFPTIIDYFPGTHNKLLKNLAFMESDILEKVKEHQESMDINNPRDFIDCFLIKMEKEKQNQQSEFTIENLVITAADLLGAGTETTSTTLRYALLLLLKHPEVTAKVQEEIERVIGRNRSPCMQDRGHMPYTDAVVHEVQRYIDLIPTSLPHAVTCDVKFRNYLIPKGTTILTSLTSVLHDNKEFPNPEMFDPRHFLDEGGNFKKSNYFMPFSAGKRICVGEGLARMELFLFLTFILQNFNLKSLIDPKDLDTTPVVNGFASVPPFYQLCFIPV

Row | inhibition at 45 min, 10 µM [%] | SMILES
1 | 1.78 | O=C(Nc1ccc(-c2cc3cc(F)c(-c4nnn[nH]4)cc3n2C2CCC2)cc1)C(=O)Nc1ccc(N2CCC(CO)CC2)cc1 [Example 23]
2 | 13.9 | O=C(Nc1ccc(-c2cc3cc(F)c(-c4nnn[nH]4)cc3n2C2CCC2)cc1)C(=O)Nc1ccc(N2CCC3(CCOC3)CC2)cc1 [Example 67]
3 | 13.5 | CC1(n2c(-c3ccc(NC(=O)C(=O)Nc4ccc(N5CCC6(CCOC6)CC5)cc4)cc3)cc3cc(F)c(-c4nnn[nH]4)cc32)CCC1 [Example 68]
